In patent publication US12226424B2, “Target protein degradation compounds, their anti-tumor use, their intermediates and use of intermediates” (ShanghaiTech University, priority 2018, dated 2025):
Values belong to the compound of their own block, whether it stands above or below them.

Experiments:
SR cells = assay: Half inhibitory concentration (IC50) on ALK-positive SR cell proliferation (CCK-8); assay type: cell-based; conditions: Homo sapiens; SR cells, 72 h drug treatment, CCK-8; read-out: IC50 (nM)/ SR cell line
Method in brief: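 SR cells seeded at 10,000 cells/well in RPMI1640 and treated with PROTAD compounds at 10 concentrations (top 10 μM, 5-fold dilutions) for 72 h at 37° C, 5% CO2. Viability read by CCK-8 (2 h) at OD450; DMSO as negative control.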

ALK protein = ALK protein (Homo sapiens, UniProt Q9UM73); assay: Western-blot half degradation concentration (DC50) of ALK protein in SR cells; assay type: cell-based; conditions: 24 h drug treatment; for DC50: read-out: DC50 (nM)/ SR cell line
Sequence of ALK protein (Q9UM73 with tags, fused parts or gaps): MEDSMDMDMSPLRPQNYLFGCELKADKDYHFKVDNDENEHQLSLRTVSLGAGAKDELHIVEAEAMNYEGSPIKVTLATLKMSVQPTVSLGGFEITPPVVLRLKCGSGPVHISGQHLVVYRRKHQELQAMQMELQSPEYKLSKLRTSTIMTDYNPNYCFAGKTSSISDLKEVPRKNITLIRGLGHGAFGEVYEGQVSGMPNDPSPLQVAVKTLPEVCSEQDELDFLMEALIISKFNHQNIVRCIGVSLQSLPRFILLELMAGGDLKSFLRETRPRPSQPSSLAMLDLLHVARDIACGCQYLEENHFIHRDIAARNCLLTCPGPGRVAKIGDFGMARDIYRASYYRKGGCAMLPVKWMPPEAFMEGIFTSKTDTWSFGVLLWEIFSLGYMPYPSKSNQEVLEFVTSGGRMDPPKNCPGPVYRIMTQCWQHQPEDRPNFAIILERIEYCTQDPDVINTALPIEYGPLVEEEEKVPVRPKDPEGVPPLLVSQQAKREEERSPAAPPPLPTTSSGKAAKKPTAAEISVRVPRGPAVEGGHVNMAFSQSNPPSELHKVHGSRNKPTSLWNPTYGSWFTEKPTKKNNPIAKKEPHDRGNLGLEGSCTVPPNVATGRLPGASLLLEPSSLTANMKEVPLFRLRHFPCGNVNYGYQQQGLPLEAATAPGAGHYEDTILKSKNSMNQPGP
Method: ALK-positive SR cells (human large cell immunoblastic lymphoma) were purchased from the American Type Culture Collection (ATCC); H3122 cells (human non-small cell lung cancer) were from the Shanghai University of Science and Technology Lin Haifan's research group.
The cells used in this present disclosure were cultured in a 37° C. incubator containing 5% CO2.
DC50 (drug concentration corresponding to protein degradation to 50%) calculation: according to the gray value of the corresponding Western blotting band after drug treatment, fitting the relationship curve between drug concentration and gray value to calculate the drug concentration range corresponding to half of the gray value.

MM1S cells = assay: Half inhibitory concentration (IC50) on BET-expressing tumor cells, CCK-8, MM1S; assay type: cell-based; conditions: Homo sapiens, MM1.S, 48/72 h, read-out: IC50 (nM)/MM1S cell line
Method: BET-expressing cells MV-4-11 cells (human B granulocytic leukemia cells), MDA-MB-231 cells (human breast cancer cells), MDA-MB-468 cells (human breast cancer cells), MDA-MB-453 Cells (human breast cancer cells), MM1S cells (myeloma (immunoglobulin A lambda), B lymphoblasts) and SR cells (human large cell immunoblast lymphoma) were purchased from the American Type Culture Collection (ATCC).
The cells used in this present disclosure were cultured in a 37° C. incubator containing 5% CO2. The complete cell culture medium was RPMI 1640/IMDM/DMEM medium with 10% fetal bovine serum, and the final concentrations of penicillin and streptomycin were 100 U/mL, respectively. All cells were tested negative for mycoplasma with mycoplasma detection kit before the experiment.
Determination of the Half Inhibitory Concentration (IC50) of PROTAD Compounds on Tumor Cells
MV-411 cells, MM1S cells and SR cells were seeded in 100 μL IMDM/RPMI1640/DMEM complete medium at a density of 15000/10000 cells/well; MDA-MB-231 cells, MDA-MB-468 cells, and MDA-MB453 cells were seeded in 100 μL IMDM/RPMI1640/DMEM complete medium at a density of 3000/5000 cells/well, respectively. 100 μL of the inoculated cells were treated with 0.5 μL diluted PROTAD compounds of the present disclosure to be tested at 10 successively decreasing concentrations (starting at the highest concentration of 10 μM; 5-fold serial dilutions). After the cells were treated with the tested drugs 48/72 h, the cell viability was determined according to the CCK-8 reagent manual. The negative control was DMSO, and the positive control was a commercial inhibitor. After CCK-8 treatment for 2 h, the value of O.D.450 was measured using a microplate reader.

MV-4-11 cells = assay: Half inhibitory concentration (IC50) on BET-expressing tumor cells, CCK-8, MV-4-11; conditions: Homo sapiens, MV4-11, read-out: IC50 (nM)/MV-4-11 cell line, MV-4-11 cells, 48/72 h, CCK-8
[1] = tested on: K562 cells (BCR-ABL positive); assay: Half inhibitory concentration (IC50) on tumor cells, CCK-8, K562; conditions: Homo sapiens, K562, 48 h, read-out: IC50 (nM)/K562 cell line
BCR-ABL = BCR-ABL (Homo sapiens, UniProt P00519); assay: Western-blot half-degradation concentration (DC50) / degradation of BCR-ABL in K562 cells; conditions: read-out: DC50 (nM)/K562 cell line, BCR-ABL protein degradation, 24 hours, Western-blot
Sequence of BCR-ABL (P00519 with tags, fused parts or gaps): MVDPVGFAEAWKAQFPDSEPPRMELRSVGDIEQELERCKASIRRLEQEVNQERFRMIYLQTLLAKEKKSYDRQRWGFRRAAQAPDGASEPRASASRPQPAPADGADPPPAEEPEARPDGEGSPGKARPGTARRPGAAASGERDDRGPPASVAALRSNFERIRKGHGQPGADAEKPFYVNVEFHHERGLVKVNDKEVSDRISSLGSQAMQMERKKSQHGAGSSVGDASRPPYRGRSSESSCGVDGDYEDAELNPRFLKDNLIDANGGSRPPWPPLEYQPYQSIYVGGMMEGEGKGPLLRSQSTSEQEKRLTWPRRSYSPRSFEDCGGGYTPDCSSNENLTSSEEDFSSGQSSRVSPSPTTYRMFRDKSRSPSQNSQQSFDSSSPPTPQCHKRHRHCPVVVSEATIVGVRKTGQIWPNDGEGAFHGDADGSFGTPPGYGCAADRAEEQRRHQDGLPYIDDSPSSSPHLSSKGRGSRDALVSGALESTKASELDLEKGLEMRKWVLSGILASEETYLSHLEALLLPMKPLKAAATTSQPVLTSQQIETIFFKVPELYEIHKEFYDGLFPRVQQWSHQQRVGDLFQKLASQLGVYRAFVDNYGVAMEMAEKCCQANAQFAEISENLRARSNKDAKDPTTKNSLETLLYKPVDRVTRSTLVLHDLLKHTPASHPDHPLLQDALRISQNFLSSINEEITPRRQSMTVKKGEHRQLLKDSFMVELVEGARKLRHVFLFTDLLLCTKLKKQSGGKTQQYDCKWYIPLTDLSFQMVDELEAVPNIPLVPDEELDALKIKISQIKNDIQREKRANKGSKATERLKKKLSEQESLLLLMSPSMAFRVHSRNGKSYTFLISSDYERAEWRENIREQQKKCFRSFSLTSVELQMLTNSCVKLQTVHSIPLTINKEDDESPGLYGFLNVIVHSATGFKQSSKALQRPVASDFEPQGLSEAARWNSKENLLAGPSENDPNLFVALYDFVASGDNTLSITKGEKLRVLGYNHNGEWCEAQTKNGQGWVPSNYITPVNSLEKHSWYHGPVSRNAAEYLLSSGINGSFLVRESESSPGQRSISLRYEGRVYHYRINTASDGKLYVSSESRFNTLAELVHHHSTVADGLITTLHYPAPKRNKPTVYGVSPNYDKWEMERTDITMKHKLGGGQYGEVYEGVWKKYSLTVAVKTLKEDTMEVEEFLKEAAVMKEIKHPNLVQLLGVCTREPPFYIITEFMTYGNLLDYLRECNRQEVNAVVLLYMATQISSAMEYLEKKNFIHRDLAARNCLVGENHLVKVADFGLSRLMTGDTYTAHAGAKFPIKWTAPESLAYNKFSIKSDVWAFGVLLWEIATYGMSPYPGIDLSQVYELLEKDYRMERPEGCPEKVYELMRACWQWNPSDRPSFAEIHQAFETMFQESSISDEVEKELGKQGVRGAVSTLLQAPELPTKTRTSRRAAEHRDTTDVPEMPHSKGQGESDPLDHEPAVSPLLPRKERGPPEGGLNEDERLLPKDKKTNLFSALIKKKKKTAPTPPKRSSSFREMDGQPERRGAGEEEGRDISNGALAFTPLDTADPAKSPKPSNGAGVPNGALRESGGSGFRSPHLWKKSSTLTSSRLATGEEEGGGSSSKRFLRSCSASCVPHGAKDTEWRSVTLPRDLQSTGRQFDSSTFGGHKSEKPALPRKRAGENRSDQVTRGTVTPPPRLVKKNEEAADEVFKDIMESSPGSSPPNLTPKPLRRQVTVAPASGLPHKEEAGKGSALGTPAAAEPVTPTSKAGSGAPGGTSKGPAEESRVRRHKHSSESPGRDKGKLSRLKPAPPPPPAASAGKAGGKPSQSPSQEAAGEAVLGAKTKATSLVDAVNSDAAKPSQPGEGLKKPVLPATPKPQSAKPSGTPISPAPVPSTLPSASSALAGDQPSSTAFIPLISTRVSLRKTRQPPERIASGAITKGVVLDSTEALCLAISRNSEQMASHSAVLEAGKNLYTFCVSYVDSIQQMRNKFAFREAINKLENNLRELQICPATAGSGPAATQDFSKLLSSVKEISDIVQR

SMILES: COc1cc(N2CCC(N3CCN(C(=O)CCCCCSc4cccc5c4CN(C4CCC(=O)NC4=O)C5=O)CC3)CC2)ccc1Nc1ncc(Cl)c(Nc2ccccc2P(C)(C)=O)n1 (stereo not drawn) [SIAIS219071, 3-(4-((6-(4-(1-(4-((5-chloro-4-((2-(dimethylphosphoryl)phenyl)amino)pyrimidin-2-yl)amino)-3-methoxyphenyl)piperidin-4-yl)piperazin-1-yl)-6-oxohexyl)thio)-1-oxoisoindolin-2-yl)piperidine-2,6-dione]
- IC50 (SR cells): 0.6 ± 0.4 nM
- DC50 (nM)/ SR cell line (ALK protein): 0.01~10 nM

SMILES: COc1cc(N2CCC(N3CCN(CCCCCCSc4cccc5c4CN(C4CCC(=O)NC4=O)C5=O)CC3)CC2)ccc1Nc1ncc(Cl)c(Nc2ccccc2P(C)(C)=O)n1 (stereo not drawn) [SIAIS219098, 3-(4-((6-(4-(1-(4-((5-chloro-4-((2-(dimethylphosphoryl)phenyl)amino)pyrimidin-2-yl)amino)-3-methoxyphenyl)piperidin-4-yl)piperazin-1-yl)hexyl)thio)-1-oxoisoindolin-2-yl)piperidine-2,6-dione]
- IC50 (SR cells): 0.7 ± 0.2 nM
- DC50 (ALK protein): 0.1 to 1 nM

SMILES: COc1cc(N2CCC(N3CCN(C(=O)CCCSc4cccc5c4CN(C4CCC(=O)NC4=O)C5=O)CC3)CC2)ccc1Nc1ncc(Cl)c(Nc2ccccc2P(C)(C)=O)n1 (stereo not drawn) [SIAIS219069, 3-(4-((4-(4-(1-(4-((5-chloro-4-((2-(dimethylphosphoryl)phenyl)amino)pyrimidin-2-yl)amino)-3-methoxyphenyl)piperidin-4-yl)piperazin-1-yl)-4-oxobutyl)thio)-1-oxoisoindolin-2-yl)piperidine-2,6-dione]
- IC50 (SR cells): 0.7 ± 0.3 nM
- DC50 (ALK protein): 0.1 to 10 nM

SMILES: Cc1sc2c(c1C)C(c1ccc(Cl)cc1)=N[C@@H](CC(=O)NCCOCCOCCSc1cccc3c1CN(C1CCC(=O)NC1=O)C3=O)c1nnc(C)n1-2 (stereo partly drawn) [SIAIS213072, 2-((S)-4-(4-chlorophenyl)-2,3,9-trimethyl-6H-thieno[3,2-f][1,2,4]triazolo[4,3-a][1,4]diazepin-6-yl)-N-(2-(2-(2-((2-(2,6-dioxopiperidin-3-yl)-1-oxoisoindolin-4-yl)thio)ethoxy)ethoxy)ethyl)acetamide]
- IC50 (MM1S cells): 3.03 nM
- IC50 (MV-4-11 cells): 0.5 ± 0.1 nM

SMILES: Cc1nc(Nc2ncc(C(=O)Nc3c(C)cccc3Cl)s2)cc(N2CCN(C(=O)CCCSc3cccc4c3C(=O)N(C3CCC(=O)NC3=O)C4=O)CC2)n1 (stereo not drawn) [SIAIS151153, N-(2-chloro-6-methylphenyl)-2-((6-(4-(4-((2-(2,6-dioxopiperidin-3-yl)-1,3-dioxoisoindolin-4-yl)thio)butanoyl)piperazin-1-yl)-2-methylpyrimidin-4-yl)amino)thiazole-5-carboxamide]
- IC50 [1]: 15 nM
- DC50 (BCR-ABL): 20.7 nM

SMILES: Cc1sc2c(c1C)C(c1ccc(Cl)cc1)=N[C@@H](CC(=O)NCCCCNC(=O)CSc1cccc3c1CN(C1CCC(=O)NC1=O)C3=O)c1nnc(C)n1-2 (stereo partly drawn) [SIAIS213094, 2-((S)-4-(4-chlorophenyl)-2,3,9-trimethyl-6H-thieno[3,2-f][1,2,4]triazolo[4,3-a][1,4]diazepin-6-yl)-N-(4-(2-((2-(2,6-dioxopiperidin-3-yl)-1-oxoisoindolin-4-yl)thio)acetamido)butyl)acetamide]
- IC50 (MM1S cells): 42.5 nM
- IC50 (MV-4-11 cells): 4.9 ± 0.8 nM

SMILES: Cc1nc(Nc2ncc(C(=O)Nc3c(C)cccc3Cl)s2)cc(N2CCN(CCCSc3cccc4c3C(=O)N(C3CCC(=O)NC3=O)C4=O)CC2)n1 (stereo not drawn) [SIAIS172106, N-(2-chloro-6-methylphenyl)-2-((6-(4-(3-((2-(2,6-dioxopiperidin-3-yl)-1,3-dioxoisoindolin-4-yl)thio)propyl)piperazin-1-yl)-2-methylpyrimidin-4-yl)amino)thiazole-5-carboxamide]
- IC50 [1]: 0.83 nM
- DC50 (BCR-ABL): < 3 nM

SMILES: Cc1sc2c(c1C)C(c1ccc(Cl)cc1)=N[C@@H](CC(=O)NCCCCNC(=O)CSc1cccc3c1C(=O)N(C1CCC(=O)NC1=O)C3=O)c1nnc(C)n1-2 (stereo partly drawn) [SIAIS213075, 2-((S)-4-(4-chlorophenyl)-2,3,9-trimethyl-6H-thieno[3,2-f][1,2,4]triazolo[4,3-a][1,4]diazepin-6-yl)-N-(4-(2-((2-(2,6-dioxopiperidin-3-yl)-1,3-dioxoisoindolin-4-yl)thio)acetamido)butyl)acetamide]
- IC50 (MM1S cells): 96.1 nM
- IC50 (MV-4-11 cells): 6.5 ± 2.5 nM

SMILES: Cc1nc(Nc2ncc(C(=O)Nc3c(C)cccc3Cl)s2)cc(N2CCN(C(=O)CCCCCSc3cccc4c3C(=O)N(C3CCC(=O)NC3=O)C4=O)CC2)n1 (stereo not drawn) [SIAIS151155, N-(2-chloro-6-methylphenyl)-2-((6-(4-(6-((2-(2,6-dioxopiperidin-3-yl)-1,3-dioxoisoindolin-4-yl)thio)hexanoyl)piperazin-1-yl)-2-methylpyrimidin-4-yl)amino)thiazole-5-carboxamide]
- IC50 [1]: 8.66 nM
- DC50 (BCR-ABL): 0.8 nM

Second part, led by results:

- DC50 (ALK protein): 0.1 to 10 nM
SMILES: COc1cc(N2CCC(N3CCN(C(=O)CSc4cccc5c4CN(C4CCC(=O)NC4=O)C5=O)CC3)CC2)ccc1Nc1ncc(Cl)c(Nc2ccccc2P(C)(C)=O)n1 (stereo not drawn) [SIAIS219067, 3-(4-((2-(4-(1-(4-((5-chloro-4-((2-(dimethylphosphoryl)phenyl)amino)pyrimidin-2-yl)amino)-3-methoxyphenyl)piperidin-4-yl)piperazin-1-yl)-2-oxoethyl)thio)-1-oxoisoindolin-2-yl)piperidine-2,6-dione]
- IC50 (SR cells): 2.4 ± 1.4 nM

- IC50 (MM1S cells): 12.8 nM
- IC50 (MV-4-11 cells): 2 ± 0.4 nM
SMILES: Cc1sc2c(c1C)C(c1ccc(Cl)cc1)=N[C@@H](CC(=O)NCCOCCOCCSc1cccc3c1C(=O)N(C1CCC(=O)NC1=O)C3=O)c1nnc(C)n1-2 (stereo partly drawn) [SIAIS213070, 2-((S)-4-(4-chlorophenyl)-2,3,9-trimethyl-6H-thieno[3,2-f][1,2,4]triazolo[4,3-a][1,4]diazepin-6-yl)-N-(2-(2-(2-((2-(2,6-dioxopiperidin-3-yl)-1,3-dioxoisoindolin-4-yl)thio)ethoxy)ethoxy)ethyl)acetamide]

- IC50 [1]: 5.74 nM
- DC50 (BCR-ABL): 2 nM
SMILES: Cc1nc(Nc2ncc(C(=O)Nc3c(C)cccc3Cl)s2)cc(N2CCN(C(=O)CCCCSc3cccc4c3C(=O)N(C3CCC(=O)NC3=O)C4=O)CC2)n1 (stereo not drawn) [SIAIS151154, N-(2-chloro-6-methylphenyl)-2-((6-(4-(5-((2-(2,6-dioxopiperidin-3-yl)-1,3-dioxoisoindolin-4-yl)thio)pentanoyl)piperazin-1-yl)-2-methylpyrimidin-4-yl)amino)thiazole-5-carboxamide]

- IC50 [1]: 11.1 nM
- DC50 (BCR-ABL): < 1 nM
SMILES: Cc1nc(Nc2ncc(C(=O)Nc3c(C)cccc3Cl)s2)cc(N2CCN(C(=O)CCSc3cccc4c3C(=O)N(C3CCC(=O)NC3=O)C4=O)CC2)n1 (stereo not drawn) [SIAIS151152, N-(2-chloro-6-methylphenyl)-2-((6-(4-(3-((2-(2,6-dioxopiperidin-3-yl)-1,3-dioxoisoindolin-4-yl)thio)propanoyl)piperazin-1-yl)-2-methylpyrimidin-4-yl)amino)thiazole-5-carboxamide]

- IC50 [1]: 6.63 nM
- DC50 (BCR-ABL): 2.9 nM
SMILES: Cc1nc(Nc2ncc(C(=O)Nc3c(C)cccc3Cl)s2)cc(N2CCN(C(=O)CCCCCCSc3cccc4c3C(=O)N(C3CCC(=O)NC3=O)C4=O)CC2)n1 (stereo not drawn) [SIAIS151156, N-(2-chloro-6-methylphenyl)-2-((6-(4-(7-((2-(2,6-dioxopiperidin-3-yl)-1,3-dioxoisoindolin-4-yl)thio)heptanoyl)piperazin-1-yl)-2-methylpyrimidin-4-yl)amino)thiazole-5-carboxamide]

- IC50 [1]: 0.51 nM
- DC50 (BCR-ABL): < 1 nM
SMILES: Cc1nc(Nc2ncc(C(=O)Nc3c(C)cccc3Cl)s2)cc(N2CCN(CCSc3cccc4c3CN(C3CCC(=O)NC3=O)C4=O)CC2)n1 (stereo not drawn) [SIAIS171166, N-(2-chloro-6-methylphenyl)-2-((6-(4-(2-((2-(2,6-dioxopiperidin-3-yl)-1-oxoisoindolin-4-yl)thio)ethyl)piperazin-1-yl)-2-methylpyrimidin-4-yl)amino)thiazole-5-carboxamide]
